Experimental data taken from the supplement of paper PMC10307832.

Experiments:
Shikonin + Trametinib = compound: CC(C)=CC[C@@H](O)C1=CC(=O)c2c(O)ccc(O)c2C1=O [Shikonin] + CC(=O)Nc1cccc(-n2c(=O)n(C3CC3)c(=O)c3c(Nc4ccc(I)cc4F)n(C)c(=O)c(C)c32)c1 [Trametinib] (partner 0.02 µM); experiment: relative viability (nuclei count vs DMSO), 5 days (fraction); higher = more cells survive
Outline: (§1)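 Lung cancer cell lines were pin-tool dosed in 1536-well plates on the day after seeding, with either a lone drug or a fixed anchor-drug dose plus five library-drug doses (not always all listed) in √10 steps. Nuclei were counted on 4× images after 5 days. Relative viability is the ratio of treated-well to vehicle-well nuclei counts, with each value a median of duplicate plates.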

[1] = compound: CC(C)N(CCCNC(=O)Nc1ccc(C(C)(C)C)cc1)C[C@H]1O[C@@H](n2ccc3c(N)ncnc32)[C@H](O)[C@@H]1O + Cc1nc(Nc2ncc(C(=O)Nc3c(C)cccc3Cl)s2)cc(N2CCN(CCO)CC2)n1 [Dasatinib] (partner 0.075 µM); experiment: as above
Outline: as §1

Cell Line	relative viability (Shikonin + Trametinib; first compound 0.01 µM)	relative viability (Shikonin + Trametinib; first compound 0.1 µM)	relative viability (Shikonin + Trametinib; first compound 0.3162 µM)	relative viability (Shikonin + Trametinib; first compound 1 µM)	relative viability ([1]; first compound 0.08 µM)	relative viability ([1]; first compound 0.253 µM)	relative viability ([1]; first compound 0.8 µM)	relative viability ([1]; first compound 2.53 µM)	relative viability ([1]; first compound 8 µM)
HCC-44	1.08	1.01	0.996	1.08	–	–	–	–	–
HCC-827	0.561	0.496	0.563	0.517	0.286	0.44	0.355	0.311	0.423
NCI-H1623	–	–	–	–	0.562	0.563	0.571	0.537	0.521
NCI-H2405	0.622	0.725	0.653	0.573	0.193	0.199	0.242	0.2	0.241
RERF-LC-KJ	0.97	0.728	0.991	0.743	0.837	0.888	0.79	0.778	0.799
NCI-H1651	0.882	0.873	0.882	0.83	0.317	0.373	0.291	0.386	0.517
HARA	0.68	0.54	0.893	0.627	0.27	0.282	0.278	0.22	0.244
NCI-H1650	0.582	0.492	0.523	0.491	0.347	0.379	–	0.275	0.349
NCI-H1395	0.994	1.18	1.09	0.923	0.471	0.433	0.392	0.441	0.463
NCI-H520	0.685	0.631	0.677	0.679	0.186	0.145	0.151	0.293	0.229
LU99A	0.537	0.563	0.567	0.478	0.477	0.381	0.679	0.597	0.479
NCI-H1355	0.405	0.42	0.424	0.395	0.71	0.548	0.379	0.698	0.668
HCC-78	0.773	0.906	0.828	0.734	0.485	0.311	0.466	0.308	0.32
NCI-H1563	–	–	–	–	0.447	0.42	0.488	0.434	0.424
HCC-15	0.389	0.35	0.414	0.418	0.596	0.684	0.574	0.581	0.591
EKVX	0.326	0.336	0.389	0.398	0.571	0.502	0.509	0.517	0.524
NCI-H2126	0.549	0.553	0.607	0.571	0.616	0.582	0.603	0.601	0.554
LK-2	0.884	0.935	0.799	0.732	0.447	0.294	0.267	0.368	0.302
NCI-H1437	0.539	0.433	0.458	0.504	0.359	0.37	0.443	0.337	0.327
COR-L23	0.769	0.685	0.622	0.508	0.499	0.5	0.457	0.474	0.442
ABC-1	–	–	–	–	0.62	0.599	–	0.712	0.524
NCI-H522	0.747	0.747	0.871	0.646	0.888	0.839	0.896	0.839	0.809
PC-3 [JPC-3]	0.664	0.688	0.669	0.616	0.921	0.971	0.884	0.892	0.868
SW 900	0.809	0.934	0.969	0.741	0.74	0.542	–	0.605	0.54
A-427	0.776	0.816	0.821	0.779	0.671	0.644	0.641	0.61	0.594

Cell Line	relative viability (Shikonin + Trametinib; first compound 0.01 µM)	relative viability (Shikonin + Trametinib; first compound 0.1 µM)	relative viability (Shikonin + Trametinib; first compound 0.3162 µM)	relative viability (Shikonin + Trametinib; first compound 1 µM)	relative viability ([1]; first compound 0.08 µM)	relative viability ([1]; first compound 0.253 µM)	relative viability ([1]; first compound 0.8 µM)	relative viability ([1]; first compound 2.53 µM)	relative viability ([1]; first compound 8 µM)
NCI-H1792	0.476	0.327	0.424	0.553	0.768	0.785	0.871	0.71	0.783
LCLC-97TM1	0.179	0.237	0.2	0.202	0.897	0.783	0.933	0.822	0.82
LCLC-103H	0.662	0.683	0.663	0.698	0.435	0.424	0.449	0.428	0.443
SK-LU-1	0.46	0.485	0.513	0.449	0.18	0.184	0.19	0.184	0.207
BEN	1.13	1.06	1.03	1.19	0.29	0.347	0.312	0.314	0.312
NCI-H1666	0.896	0.855	1.02	0.772	0.874	0.796	0.799	0.813	0.705
LC-2-ad	0.962	1.02	1.02	0.945	0.528	0.569	0.527	0.502	0.632
ChaGo-K-1	0.883	0.98	0.903	0.972	0.532	0.672	0.556	0.552	0.497
COR-L 105	0.387	0.445	0.442	0.387	0.298	0.347	0.308	0.31	0.391
NCI-H1975	0.275	0.367	0.33	0.321	0.382	0.337	0.241	0.341	0.288
NCI-H2009	0.256	0.292	0.245	0.254	0.261	0.281	0.273	0.288	0.295
SW 1573	0.615	0.502	0.502	0.112	0.475	0.463	0.579	0.704	0.474
NCI-H2347	0.272	0.273	0.279	0.249	0.305	0.305	0.326	0.296	0.293
HCC-366	0.359	0.363	0.336	0.451	0.608	0.647	0.442	0.587	0.536
EMC-BAC-2	0.863	0.947	1	0.851	0.349	0.36	0.297	0.359	0.37
NCI-H3122	0.183	0.292	0.211	0.266	0.696	0.814	0.559	0.786	0.739
NCI-H358	0.124	0.124	0.121	0.126	0.172	0.158	0.171	0.174	0.165
NCI-H1944	0.382	0.431	0.415	0.469	0.197	0.197	0.257	0.243	0.222
NCI-H1648	0.422	–	0.464	0.503	–	–	–	–	–
EPLC-272H	0.286	0.335	0.265	0.244	0.354	0.394	0.508	0.373	0.439
NCI-H1915	0.308	0.31	0.309	0.298	0.311	0.34	0.311	0.323	0.314
NCI-H650	0.988	1.19	0.996	0.982	0.416	0.425	0.468	0.434	0.438
NCI-H441	0.468	0.487	0.528	0.451	0.718	0.535	–	0.544	0.535
NCI-H23	0.356	0.395	0.472	0.42	0.685	0.645	0.716	0.798	0.725
NCI-H2342	0.902	0.686	0.88	0.843	0.336	0.29	0.289	0.321	0.277

Cell Line	relative viability (Shikonin + Trametinib; first compound 0.01 µM)	relative viability (Shikonin + Trametinib; first compound 0.1 µM)	relative viability (Shikonin + Trametinib; first compound 0.3162 µM)	relative viability (Shikonin + Trametinib; first compound 1 µM)	relative viability ([1]; first compound 0.08 µM)	relative viability ([1]; first compound 0.253 µM)	relative viability ([1]; first compound 0.8 µM)	relative viability ([1]; first compound 2.53 µM)	relative viability ([1]; first compound 8 µM)
NCI-H661	0.559	0.536	0.505	0.576	0.875	0.787	0.892	0.885	0.821
SK-MES-1	0.595	0.57	0.575	0.71	0.348	0.355	0.356	0.475	0.316
NCI-H2170	0.937	0.97	0.959	0.981	0.429	0.478	0.55	0.591	0.562
NCI-H2087	0.198	0.194	0.189	0.18	0.876	1.03	0.77	1.04	0.948
NCI-H1993	0.526	0.516	0.563	0.568	0.476	–	–	0.768	0.718
PC-14	0.936	0.9	0.893	0.769	0.223	0.292	0.233	0.247	0.275
NCI-H460	0.159	0.164	0.131	0.135	0.41	0.531	0.453	0.504	0.456
LOU-NH91	0.815	0.839	0.838	0.791	0.572	0.579	0.485	0.553	0.529
NCI-H322M	0.498	0.459	0.513	0.564	0.278	0.266	0.264	0.24	0.284
NCI-H596	0.94	0.827	0.841	0.839	0.603	–	0.528	0.561	0.619
NCI-H727	0.351	0.375	0.389	0.409	0.381	0.427	0.345	0.393	0.333
NCI-H838	0.619	0.505	0.551	0.564	0.268	0.262	0.279	0.263	0.31
NCI-H1793	0.393	0.414	0.392	0.417	0.368	–	0.355	0.36	0.38
NCI-H1734	0.664	0.771	0.747	0.732	0.411	0.415	0.456	0.485	0.508
LXF-289	0.668	0.756	0.712	0.701	0.281	0.271	0.231	0.186	0.229
H3255	0.658	0.544	0.613	0.548	0.507	0.354	0.434	0.282	0.367
201T	0.724	0.777	0.75	0.707	0.562	0.548	0.505	0.565	0.593
NCI-H2228	0.342	0.441	0.536	0.494	0.54	0.457	0.502	0.416	0.613
HOP-62	0.389	0.374	0.394	0.401	0.629	0.615	0.54	0.577	0.604
CAL-12T	0.346	0.376	0.243	0.28	0.405	0.398	0.386	0.453	0.402
NCI-H647	0.414	0.356	0.443	0.451	0.183	0.15	–	0.205	0.212
NCI-H1755	0.703	0.812	0.756	0.742	0.373	0.44	0.418	0.428	0.429
NCI-H2085	0.601	0.502	0.574	0.513	0.248	0.218	0.288	0.232	0.26
NCI-H2023	0.546	0.534	0.64	0.56	0.503	0.668	0.602	0.662	0.55
